# Laboratory results reported in US12098147B2, “Compound having novel structure, complex comprising same, anti-cancer pharmaceutical composition, and anti-cancer drug” (ETNOVA THERAPEUTICS CORP., priority 2018, dated 2024).
# Like-named read-outs stand apart in the source and are kept apart here.
# Columns and labels:
# HT-29 cell line = experiment: CCK-8 cell viability, HT-29 colorectal cancer cell line; assay type: cell-based, human; settings: serum-free medium, 24 hours, mean ± SD of 2 to 3 experiments
# Protocol: (§1) To identify the anticancer effect of the compounds L1, L2, and L3 according to Examples 1 to 3 of the present disclosure, and the complexes L1Pt, L2Pt, and L3Pt according to Examples 4 to 6 of the disclosure, the cell viability analysis of cancer cells using CCK-8 was performed on several cancer cell lines (colorectal cancer cell line (HT-29 cell line), breast cancer cell line (MCF-7 and MDA-MB-231), cervical cancer cell line (HeLa cell line), liver cancer cell line (Huh-7 and HepG2), brain glioma cell line (C6), lung cancer (A549), prostate cancer (PC3), kidney cancer (Caki-2), normal liver cell line (AML-12), embryonic kidney cell line (HEK-293), neural stem cell line (NE-4C) and normal breast epithelial cell line (MCF10a)).
# (§2) CCK-8 (Cell counting kit-8) is analyzed using a highly water-soluble tetrazolium salt-[…]. [2-(2-methoxy-4-nitrophenyl)-3-(4-nitrophenyl)(2,4-disulfophenyl)-2H-tetrazolium, monosodium salt] is reduced under the presence of an electron medium to produces a water-soluble formazan orange dye. The amount of the formazan dye produced by dehydrogenase in a cell is directly proportional to the number of living cells.
# (§3) In an experimental method for evaluating the properties of the compounds according to the present disclosure, various cancer cell lines derived from humans and normal cell lines of each tissue derived from humans and mice were used in this experiment. A complete growth medium corresponding to each cell line and having 10% of heat-inactivated FBS added thereto was used to maintain corresponding cells. The maintained cells were suspended in a volume of 200 μl at a density of 1 or 1.5×10^4 cells and planted in each well of a 96 well plate. The cells were attached to a 37° C. and 5% CO2 incubator for more than 14 hours, and we waited for a stable state. The next day, we removed the medium from the well. 100 μl of serum-free medium containing drugs of various concentrations (0 (control), 2.5, 5, 10, 20, 30, 40, 50, 100, 200 μM) was added to each well and the cells was cultured therein. On 22 hours after the incubation, 10 μl of CCK-8 solution was added to each well, followed by incubation for 2 hours. A plate on which the culture was completed was measured in terms of absorbance at 450 nm using a microplate reader.
# (§4) Cell Viability Calculation:
# (§5) • A: Absorbance value measured in a control well • B: Absorbance value measured in a well containing the drug
# (§6) In Table 1 below, each compound was applied to the cells at 0, 2.5, 5, 10, 20, 30, 40, 50, 100, and 200 μM, and the cells was cultured in a medium free of serum for 24 hours. The measured absorbance value was converted to a % value based on a value of 0, such that a IC50 value was calculated. Each experiment was performed 2 to 3 times and a standard deviation value was obtained.
# MDA-MB-231 = experiment: CCK-8 cell viability, MDA-MB-231 breast cancer cell line; assay type: cell-based, human; settings: 24 hours, mean ± SD of 2 to 3 experiments
# Protocol: as §1, §2, §3, §4, §5, §6
# NE-4C = experiment: CCK-8 cell viability, NE-4C neural stem cell line; assay type: cell-based; settings: for IC50: serum-free medium, 24 hours, CCK-8, mean ± SD of 2 to 3 experiments, read-out: IC50 NC-4C (Neural stem cell); for toxicity against brain neurons, in words: brain neurons (NE-4C), FIG. 4
# Protocol: as §2, §3, §4, §5, §6
# MCF10a = experiment: CCK-8 cell viability, MCF10a normal breast epithelial cell line; assay type: cell-based; settings: for IC50: serum-free medium, 24 hours, CCK-8, mean ± SD of 2 to 3 experiments; for cytotoxicity against breast epithelial cells, in words: breast epithelial cells (MCF10a), FIG. 4
# Protocol: as §1, §2, §3, §4, §5, §6
# HeLa cell line = experiment: CCK-8 cell viability, HeLa cervical cancer cell line; assay type: cell-based, human; settings: serum-free medium, 24 hours, mean ± SD of 2 to 3 experiments
# Protocol: as §1, §2, §3, §4, §5, §6
# Huh-7 = experiment: CCK-8 cell viability, Huh-7 liver cancer cell line; assay type: cell-based, human; settings: 24 hours, mean ± SD of 2 to 3 experiments
# Protocol: as §1, §2, §3, §4, §5, §6
# HEK-293 = experiment: CCK-8 cell viability, HEK-293 embryonic kidney cell line; assay type: cell-based; settings: serum-free medium, 24 hours, mean ± SD of 2 to 3 experiments, read-out: IC50 HEK293 (embryonic kidney)
# Protocol: as §1, §2, §3, §4, §5, §6
# [1] = test system: several cancer cell lines; experiment: CCK-8 cell viability, panel of cancer cell lines compared in words (FIGS. 3a to 3e); assay type: cell-based, human; settings: for effect on cancer cell lines compared with the rest of the compounds, in words / toxic effect on cancer cell lines compared with cisplatin and BTA, in words / cell toxicity on cancer cell lines compared with BTA, in words / cell toxicity on cancer cell lines compared with cisplatin, in words: Log IC50 comparison, FIGS. 3a to 3e; for effect on cancer cell lines compared with the rest of the compounds, in words: comparator the rest of the compounds; for toxic effect on cancer cell lines compared with cisplatin and BTA, in words: comparators cisplatin and BTA; for cell toxicity on cancer cell lines compared with BTA, in words: comparator BTA; for cell toxicity on cancer cell lines compared with cisplatin, in words: comparator cisplatin
# Protocol: as §1, §2, §3
# Further, FIGS. 3a to 3e show a graph in which a IC50 value which is obtained based on 2 to 3 times executions of the cell viability analysis is converted to a Log IC50 value. […] The comparative reliability values for BTA were expressed as […], ##p<0.01, and ## #p<0.001. A red line represents the value of cisplatin. A blue line represents the value of BTA.
# HepG2 = experiment: CCK-8 cell viability, HepG2 liver cancer cell line; assay type: cell-based, human; settings: 24 hours, mean ± SD of 2 to 3 experiments
# Protocol: as §1, §2, §3, §4, §5, §6
# Caki-2 = experiment: CCK-8 cell viability, Caki-2 kidney cancer cell line; assay type: cell-based, human; settings: serum-free medium, 24 hours, mean ± SD of 2 to 3 experiments
# Protocol: as §1, §2, §3, §4, §5, §6
# C6 = experiment: CCK-8 cell viability, C6 brain glioma cell line; assay type: cell-based, human; settings: 24 hours, mean ± SD of 2 to 3 experiments
# Protocol: as §1, §2, §3, §4, §5, §6
# AML12 = experiment: CCK-8 cell viability, AML-12 normal liver cell line; assay type: cell-based; settings: for IC50: serum-free medium, 24 hours, CCK-8, mean ± SD of 2 to 3 experiments; for toxicity against normal hepatocytes, in words: normal hepatocytes (AML12), FIG. 4
# Protocol: as §2, §3, §4, §5, §6
# A549 = experiment: CCK-8 cell viability, A549 lung cancer cell line; assay type: cell-based, human; settings: serum-free medium, 24 hours, mean ± SD of 2 to 3 experiments
# Protocol: as §1, §2, §3, §4, §5, §6
# MCF-7 = experiment: CCK-8 cell viability, MCF-7 breast cancer cell line; assay type: cell-based, human; settings: 24 hours, mean ± SD of 2 to 3 experiments
# Protocol: as §1, §2, §3, §4, §5, §6
# PC3 = experiment: CCK-8 cell viability, PC3 prostate cancer cell line; assay type: cell-based, human; settings: 24 hours, mean ± SD of 2 to 3 experiments
# Protocol: as §1, §2, §3, §4, §5, §6
# [2] = Homo sapiens, Huh-7, serum-free medium
# [3] = Homo sapiens, HepG2, serum-free medium
# [4] = Rattus norvegicus, C6, serum-free medium
# [5] = Homo sapiens, MDA-MB-231, serum-free medium
# [6] = Homo sapiens, MCF7, serum-free medium
Structure (SMILES),IC50 (HT-29 cell line),IC50 (MDA-MB-231; serum-free medium),IC50 (NE-4C),IC50 (MCF10a),IC50 (HeLa cell line),IC50 (Huh-7; serum-free medium),IC50 (HEK-293),IC50 (HepG2; serum-free medium),IC50 (Caki-2),IC50 (C6; serum-free medium),IC50 (AML12),IC50 (A549),IC50 (MCF-7; serum-free medium),IC50 (PC3; serum-free medium),IC50 (NE-4C; Neural stem cell),"toxicity against brain neurons, in words (NE-4C)","cytotoxicity against breast epithelial cells, in words (MCF10a)",IC50 (Huh-7; [2]),IC50 (C6; [4]),"cell toxicity on cancer cell lines compared with BTA, in words [1]",other results
"N.N.[Cl][Pt][Cl] [Cisplatin, cisplatin, reference compound]",39.1 ± 0.61 µM,181 ± 48.7 µM,9.01 ± 0.28 µM,96 ± 6.72 µM,26.2 ± 5.61 µM,38.6 ± 18.5 µM,65.5 ± 4.06 µM,54.2 ± 31.8 µM,> 500 µM,227 ± 34.3 µM,32.1 ± 4.45 µM,> 500 µM,204 ± 27.3 µM,> 500 µM,–,–,–,–,–,–,"effect on cancer cell lines, in words ([1]; Log IC50, FIGS. 3a to 3e, no comparator): did not have a great effect on lung cancer, prostate cancer, and kidney cancer"
"NCC(N)C(=O)Nc1ccc(-c2nc3ccccc3s2)cc1 (centres unmarked) [Example L1, 2,3-diamoniumtrifluoroacetate-N-(4-benzothiazol-2-yl-phenyl)-propionamide]",–,–,–,–,–,–,–,–,–,–,–,–,–,–,36.8 ± 3.66 µM,greater toxicity than BTA did,weak cytotoxicity,69.1 ± 5.25 µM,77.8 ± 9.73 µM,–,"effect on cancer cell lines compared with the rest of the compounds, in words [1]: superior effects on breast cancer, liver cancer, brain glioma, lung cancer, prostate cancer, and kidney cancer than the rest of the compounds did; toxic effect on cancer cell lines compared with cisplatin and BTA, in words [1]: greater toxic effect against cancer cell lines of colorectal cancer, breast cancer, liver cancer, brain glioma, lung cancer, prostate cancer, and kidney cancer than the cisplatin and BTA did; IC50 (HepG2; [3]): 5.94 ± 0.501 µM; IC50 (PC3; Homo sapiens, PC-3, serum-free medium): 94.99 ± 0.82 µM"
NCC(N)C(=O)Nc1ccc(-c2nc3ccccc3s2)cc1.[Cl][Pt][Cl] (centres unmarked) [Example L1Pt],42.6 ± 5.61 µM,80.8 ± 10.5 µM,25.7 ± 1.66 µM,46.9 ± 5.14 µM,64.75 ± 0.31 µM,69.4 ± 1.24 µM,54.9 ± 2.83 µM,7.49 ± 0.159 µM,106 ± 8.54 µM,93.3 ± 22.7 µM,139.1 ± 0.85 µM,167 ± 11.2 µM,59 ± 11.1 µM,55.7 ± 7.47 µM,–,greater toxicity than BTA did,weak cytotoxicity,–,–,–,"effect on cancer cell lines compared with the rest of the compounds, in words [1]: superior effects on breast cancer, liver cancer, brain glioma, lung cancer, prostate cancer, and kidney cancer than the rest of the compounds did; toxic effect on cancer cell lines compared with cisplatin and BTA, in words [1]: greater toxic effect against cancer cell lines of colorectal cancer, breast cancer, liver cancer, brain glioma, lung cancer, prostate cancer, and kidney cancer than the cisplatin and BTA did"
"O=C(Nc1ccc(-c2nc3ccccc3s2)cc1)C(C/N=C/c1ccccc1O)/N=C/c1ccccc1O (centres unmarked) [Example L2, N-(4-benzothiazol-2-yl-phenyl)-2,3-bis-[(2-hydroxy-benzylidene)-amino]-propionamide]",–,–,–,–,–,–,–,–,–,–,–,–,–,–,28.23 ± 0.06 µM,greater toxicity than BTA did,weak cytotoxicity,95.9 ± 15 µM,143 ± 32.7 µM,"greater cell toxicity against colorectal cancer, breast cancer, liver cancer, brain glioma, lung cancer, prostate cancer, and kidney cancer than BTA did","IC50 (MDA-MB-231; [5]): 152 ± 19.9 µM; IC50 (HeLa cell line; Homo sapiens, HeLa): 47.1 ± 6.07 µM; cell toxicity on cancer cell lines compared with cisplatin, in words [1]: greater toxic effect on cancer cell lines on lung cancer, prostate cancer, and kidney cancer than cisplatin did; IC50 (HepG2; [3]): 14.2 ± 7.06 µM; toxicity against normal hepatocytes, in words (AML12): did not exhibit liver cytotoxicity; IC50 (MCF-7; [6]): 98.2 ± 7.92 µM"
O=C(Nc1ccc(-c2nc3ccccc3s2)cc1)C1CN=Cc2ccccc2[O][Pt][O]c2ccccc2C=N1 (centres unmarked) [Example L2Pt],173 ± 3.23 µM,> 500 µM,47 ± 4.12 µM,> 500 µM,221 ± 15.8 µM,197 ± 3.75 µM,212 ± 14.9 µM,31.6 ± 3.62 µM,> 500 µM,> 500 µM,> 500 µM,> 500 µM,> 500 µM,> 500 µM,–,greater toxicity than BTA did,weaker cytotoxicity or no cytotoxicity than cisplatin and BTA did,–,–,greater cell toxicity on colorectal cancer than BTA did,"toxicity against normal hepatocytes, in words (AML12): did not exhibit liver cytotoxicity"
"O=C(Nc1ccc(-c2nc3ccccc3s2)cc1)C1CNC(c2ccccn2)=N1 (centres unmarked) [Example L3, N-(4-(benzo[d]thiazol-2-yl)phenyl)-2-(pyridin-2-yl)-4,5-dihydro-1H-imidazole-4-carboxamide]",–,–,–,–,–,–,–,–,–,–,–,–,–,–,22.4 ± 2.44 µM,greater toxicity than BTA did,weaker cytotoxicity or no cytotoxicity than cisplatin and BTA did,178 ± 2.6 µM,142 ± 15.4 µM,greater cell toxicity on colorectal cancer breast cancer and brain glioma than BTA did,"IC50 (MDA-MB-231; [5]): > 500 µM; IC50 (HeLa cell line; Homo sapiens, HeLa): 99 ± 3.54 µM; cell toxicity on cancer cell lines compared with cisplatin, in words [1]: greater cell toxicity on prostate cancer and kidney cancer than cisplatin did; toxicity against normal hepatocytes, in words (AML12): did not exhibit liver cytotoxicity; IC50 (MCF-7; [6]): 190 ± 16.6 µM"
